{"source": "patent US20240344062A1", "about": "“RIBOSOMAL RNA (rRNA) VARIANTS […] PROTEIN PRODUCTION CAPABILITIES” (THE BROAD INSTITUTE, INC., priority 2021, published 2024)", "tested_on": "gIII under o-RBS variants", "assay": "Two-stage selection of o-RBS/o-antiRBS pairs (phage titers post infection)", "conditions": "seven o-RBS variants with o-antiRBSlib SPs"}
{"substance": "o-RBSH3: orthogonal ribosome binding site, SEQ ID NO: 7 (DNA UUUCCAAUAUACAGAUCUAUG; listed as RNA, chemistry not fully specified)", "values": [{"measurement": "propagation (phage titers) post infection", "value": "highest titers"}]}
